Results as given in the supplement of paper PMC10702517.
± gives the standard deviation.

Experiment: chemical recovery from spiked human plasma; higher = better extraction
Details: pooled human plasma
[1] = extraction method: PES+SPE (3 d PDMS equilibration then HLB SPE)
[2] = extraction method: SPE only (HLB 96-well)
[3] = extraction method: solvent precipitation (ACN + hexane)
[4] = extraction method: SPE only (HLB 96-well), PES comparison experiment

SMILES: Cc1cc(C)nc(Nc2ccccc2)n1 [Pyrimethanil]
- chemical recovery [1]: 51.1 ± 7.5%
- chemical recovery [2]: 31.2 ± 2.5%
- chemical recovery [3]: 61.9 ± 3%

SMILES: CN(C1CCCCC1)C1CCCCC1 [N-Methyl-dicyclohexylamine]
- chemical recovery [1]: 0.654 ± 0.19%
- chemical recovery [2]: 30.9 ± 1.6%
- chemical recovery [3]: 50.9 ± 7.1%

SMILES: NC(=O)N1c2ccccc2CC(=O)c2ccccc21 [Oxcarbazepine]
- chemical recovery [3]: 0.126 ± 0.22%

SMILES: CC(C)(C)CC(C)(C)c1ccc(O)cc1 [4-Tert-Octylphenol]
- chemical recovery [2]: 25.4 ± 2%

SMILES: Nc1nc2ccccc2[nH]1 [2-Aminobenzimidazole]
- chemical recovery [2]: 18.8 ± 4.5%
- chemical recovery [3]: 68.3 ± 4.5%

SMILES: CNS(=O)(=O)c1ccccc1 [N-Methylbenzenesulfonamide]
- chemical recovery [3]: 77.4 ± 3.4%

SMILES: O=C(O)c1cc(C(=O)O)cc([N+](=O)[O-])c1 [5-Nitroisophthalic-acid]
- chemical recovery [1]: 79.2 ± 17%
- chemical recovery [2]: 50.5 ± 17%
- chemical recovery [3]: 0.332 ± 0.35%

SMILES: CC1(C)C(=O)NC(=O)NC1=O [5,5-Dimethylbarbituric-acid]
- chemical recovery [1]: 5.81 ± 5%
- chemical recovery [2]: 8.69 ± 8.3%
- chemical recovery [3]: 39.8 ± 10%

SMILES: Cc1cc(C(F)(C(F)(F)F)C(F)(F)F)ccc1NC(=O)c1cccc(I)c1C(=O)NC(C)(C)CS(C)(=O)=O [Flubendiamide]
- chemical recovery [2]: 25.7 ± 6.4%
- chemical recovery [3]: 53.1 ± 4.4%

SMILES: Clc1nc2ccccc2s1
- chemical recovery [3]: 5.44 ± 5.7%

SMILES: Cn1cc(C(=O)Nc2ccccc2-c2cc(F)c(F)c(F)c2)c(C(F)F)n1 [Fluxapyroxad]
- chemical recovery [1]: 69.6 ± 10%
- chemical recovery [2]: 65 ± 3%
- chemical recovery [3]: 79.9 ± 1.2%

SMILES: Oc1ccc2c(c1)[nH]c1ccccc12 [2-Hydroxycarbazole]
- chemical recovery [1]: 52.1 ± 4.4%
- chemical recovery [2]: 40.6 ± 5%

SMILES: CCNc1nc(N)nc(Cl)n1 [Desisopropylatrazine]
- chemical recovery [1]: 50.7 ± 4.7%
- chemical recovery [2]: 38.9 ± 2.4%

SMILES: CCCCCCCCOc1ccc(-c2nc(-c3ccc(C)cc3C)nc(-c3ccc(C)cc3C)n2)c(O)c1 [UV-1164]
- chemical recovery [2]: 0.287 ± 0.085%

SMILES: CCCCCCCCCCCCCCCC[N+](C)(C)Cc1ccccc1 [Benzyldimethylhexadecylammonium]
- chemical recovery [3]: 63.9 ± 7.4%

SMILES: COc1ccccc1OCC(O)COC(N)=O (centres undefined) [Methocarbamol]
- chemical recovery [1]: 40.6 ± 2.7%
- chemical recovery [2]: 36.1 ± 3.5%
- chemical recovery [3]: 70.6 ± 2%

SMILES: O=C(O)COc1nc(Cl)c(Cl)cc1Cl [Triclopyr]
- chemical recovery [1]: 43 ± 3.5%
- chemical recovery [2]: 37 ± 3.9%
- chemical recovery [3]: 70.3 ± 2.9%

SMILES: Cc1c(COC(=O)C2C(/C=C(\Cl)C(F)(F)F)C2(C)C)cccc1-c1ccccc1 (centres undefined) [Bifenthrin]
- chemical recovery [2]: 0.536 ± 0.24%
- chemical recovery [3]: 18.9 ± 3.9%

SMILES: CCCN(CCC)CCC [Tripropylamine]
- chemical recovery [2]: 7.35 ± 6.9%
- chemical recovery [3]: 2.09 ± 3.1%

SMILES: Brc1cc(Br)c(Oc2c(Br)cc(Br)c(Br)c2Br)cc1Br [BDE183]
- chemical recovery [1]: 5.01 ± 7.1%

SMILES: CCCC(Cn1cncn1)c1ccc(Cl)cc1Cl (centres undefined) [Penconazole]
- chemical recovery [1]: 51.3 ± 5.9%
- chemical recovery [2]: 65.9 ± 1.6%
- chemical recovery [3]: 67.7 ± 4.2%

SMILES: CN(Cc1cnc2nc(N)nc(N)c2n1)c1ccc(C(=O)N[C@@H](CCC(=O)O)C(=O)O)cc1 [Methotrexate]
- chemical recovery [1]: 60.3 ± 4%
- chemical recovery [2]: 60.1 ± 3.9%
- chemical recovery [4]: 38.1 ± 4.1%

SMILES: CCOP(=S)(OCC)SCSC(C)(C)C [Terbufos]
- chemical recovery [2]: 14.7 ± 4.8%

SMILES: N#CCNC(=O)c1cnccc1C(F)(F)F [Flonicamid]
- chemical recovery [1]: 53.1 ± 3.7%
- chemical recovery [2]: 46.9 ± 1.9%
- chemical recovery [3]: 73.8 ± 3.3%

SMILES: C1CCC(NC2CCCCC2)CC1 [Dicyclohexylamine]
- chemical recovery [2]: 35.2 ± 2.1%
- chemical recovery [3]: 53.8 ± 6.1%

SMILES: CCCCCCS(=O)(=O)O [1-Hexanesulfonic-acid]
- chemical recovery [1]: 31.6 ± 3.8%
- chemical recovery [2]: 30.6 ± 4.2%
- chemical recovery [3]: 74.2 ± 8.3%

SMILES: N#Cc1ccccc1C#N [Phthalonitrile]
- chemical recovery [2]: 8.49 ± 8.2%

SMILES: CNCC[C@H](Oc1cccc2ccccc12)c1cccs1 [Duloxetine]
- chemical recovery [1]: 1.6 ± 0.45%
- chemical recovery [2]: 34.8 ± 2.4%
- chemical recovery [3]: 59.7 ± 5.1%

SMILES: CNC(=O)ON=C(C)C(C)SC (centres undefined) [Butocarboxim]
- chemical recovery [4]: 46.4 ± 8.7%

SMILES: CCCN(CCOc1c(Cl)cc(Cl)cc1Cl)C(=O)NC=O [Prochloraz BTS445-96]
- chemical recovery [3]: 71.33 ± 0.59%

SMILES: O=C(O)Cc1c[nH]c2ccccc12 [Indole-3-acetic acid]
- chemical recovery [4]: 79.9 ± 19%

SMILES: O=C(c1ccccc1)c1ccc(O)cc1O [2,4-Dihydroxybenzophenone]
- chemical recovery [1]: 53.8 ± 3.7%
- chemical recovery [2]: 42.1 ± 2.9%
- chemical recovery [3]: 59.2 ± 3.6%

SMILES: CC(c1ccc(O)cc1)c1ccc(O)cc1 [Bisphenol-E]
- chemical recovery [1]: 62.3 ± 2.5%
- chemical recovery [2]: 51 ± 4%
- chemical recovery [3]: 63.7 ± 3.1%

SMILES: CCCCCCCCCC(=O)N(C)C [N,N-Dimethyldecan-1-amide]
- chemical recovery [1]: 27.7 ± 10%
- chemical recovery [2]: 13.6 ± 0.95%

SMILES: Cc1c(N)c(=O)n(-c2ccccc2)n1C [4-Aminoantipyrine]
- chemical recovery [1]: 6.85 ± 1.7%
- chemical recovery [2]: 8.59 ± 2.6%
- chemical recovery [3]: 67.1 ± 4.8%

SMILES: CC(C)c1cc(C(C)(C)c2ccc(O)c(C(C)C)c2)ccc1O [Bisphenol-G]
- chemical recovery [2]: 8.379 ± 0.058%
- chemical recovery [3]: 39.5 ± 3.7%

SMILES: CCCCOCCOCCOCCO [Triethylene-Glycol-Monobutyl-Ether]
- chemical recovery [1]: 165 ± 16%
- chemical recovery [2]: 109 ± 30%

SMILES: CN(C)C(=O)Nc1ccccc1 [Fenuron]
- chemical recovery [1]: 49.2 ± 5%
- chemical recovery [2]: 46.9 ± 2.6%
- chemical recovery [4]: 49.4 ± 5.9%
- chemical recovery [3]: 74.6 ± 2.4%

SMILES: CCCCOP(=O)(O)OCCCC [Di-n-butyl-phosphate]
- chemical recovery [1]: 40.8 ± 6.1%
- chemical recovery [2]: 40.5 ± 3.9%

SMILES: CC1COCc2cc3c(cc21)C(C)(C)C(C)C3(C)C (centres undefined) [Galaxolide]
- chemical recovery [1]: 39.1 ± 9.8%
- chemical recovery [2]: 13.7 ± 2.7%
- chemical recovery [3]: 99.6 ± 18%

SMILES: CNC(=O)O/N=C(\SC)C(=O)N(C)C [Oxamyl]
- chemical recovery [2]: 28 ± 2.6%
- chemical recovery [3]: 6.16 ± 4.2%

SMILES: c1ccc2c(c1)Cc1ccccc1-2 [Fluorene]
- chemical recovery [4]: 11 ± 2.6%

SMILES: CC(=O)CCC1C(C)=CCCC1(C)C (stereo not drawn) [Dihydro-alpha-ionone]
- chemical recovery [2]: 3.54 ± 6.1%

SMILES: Cc1ccc(C)c(O)c1C [2,3,6-Trimethylphenol]
- chemical recovery [2]: 0.62 ± 1.1%

SMILES: COC(=O)c1ccc(C(=O)OC)cc1 [Dimethyl-terephthalate]
- chemical recovery [3]: 64.5 ± 14%

SMILES: CC(C)c1ccc(N)cc1 [4-Isopropylaniline]
- chemical recovery [1]: 6.67 ± 1.6%
- chemical recovery [2]: 15.1 ± 2.4%
- chemical recovery [4]: 18.2 ± 5.3%
- chemical recovery [3]: 23.6 ± 3.4%

SMILES: COc1ccc(C(c2ccc(OC)cc2)C(Cl)Cl)cc1 [1,1-Dichloro-2,2-bis(4-methoxyphenyl)ethan]
- chemical recovery [2]: 9.27 ± 2.4%
- chemical recovery [3]: 33.1 ± 7.1%

SMILES: Cc1ccc(O)c(-n2nc3ccccc3n2)c1 [Drometrizole]
- chemical recovery [2]: 15.4 ± 9.1%
- chemical recovery [3]: 54.1 ± 4.6%

SMILES: COc1cnc(OC)n2nc(NS(=O)(=O)c3c(OCC(F)F)cccc3C(F)(F)F)nc12 [Penoxsulam]
- chemical recovery [1]: 53.1 ± 7.8%
- chemical recovery [2]: 42.2 ± 4.3%
- chemical recovery [3]: 78.9 ± 3.6%

SMILES: N=C(Nc1ccccc1)Nc1ccccc1 [1,3-Diphenylguanidine]
- chemical recovery [1]: 22.6 ± 3%
- chemical recovery [2]: 34.5 ± 2.5%
- chemical recovery [4]: 48.7 ± 4.8%
- chemical recovery [3]: 59.5 ± 2.6%

SMILES: CNC1(c2ccccc2Cl)CCCCC1=O (centres undefined) [Ketamine]
- chemical recovery [1]: 10.8 ± 4.5%
- chemical recovery [2]: 32.2 ± 2.1%
- chemical recovery [4]: 45.4 ± 6.8%
- chemical recovery [3]: 59 ± 2.7%

SMILES: Cn1c(=O)c2[nH]cnc2n(C)c1=O [Theophyllin]
- chemical recovery [4]: 95.7 ± 22%
- chemical recovery [3]: 101 ± 6.1%

SMILES: CCC1(c2ccccc2)C(=O)NCNC1=O [Primidone]
- chemical recovery [1]: 41.5 ± 2.6%
- chemical recovery [2]: 36.6 ± 3.8%
- chemical recovery [4]: 41.9 ± 4.5%
- chemical recovery [3]: 76.5 ± 3.6%

SMILES: CN(C)CCC(c1ccc(Cl)cc1)c1ccccn1 (centres undefined) [Chlorpheniramine]
- chemical recovery [1]: 0.333 ± 0.13%
- chemical recovery [2]: 33.5 ± 3.4%
- chemical recovery [3]: 54 ± 5.6%

SMILES: COP(=O)(OC)O/C(C)=C/C(=O)N(C)C [Dicrotophos]
- chemical recovery [1]: 38.5 ± 3.5%
- chemical recovery [2]: 37.3 ± 0.93%
- chemical recovery [3]: 59.3 ± 8.9%

SMILES: CC#Cc1cc(C)nc(Nc2ccccc2)n1 [Mepanipyrim]
- chemical recovery [3]: 70.7 ± 2.9%
